Counter-ions that a name gives are not always drawn. Bounds are passed on as bounds.

From patent publication US9481659B2, “Selective heterocyclic sphingosine 1 phosphate receptor modulators” (Celgene International II SÀRL, priority 2011, dated 2016) come the findings set out here.

For this experiment, the target named is S1P1/EDG1 (Homo sapiens, UniProt P21453). In words: S1P1 CRE-bla CHOK1 reporter assay, inhibition of Forskolin induced cAMP. It is filed as cell-based. The note with it: agonist activity range; S1P1 CRE-bla CHOK1 cells, 2 μM Forskolin; read-out: S1P1 ACTIVITY
Sequence of S1P1/EDG1 (P21453 whole entry): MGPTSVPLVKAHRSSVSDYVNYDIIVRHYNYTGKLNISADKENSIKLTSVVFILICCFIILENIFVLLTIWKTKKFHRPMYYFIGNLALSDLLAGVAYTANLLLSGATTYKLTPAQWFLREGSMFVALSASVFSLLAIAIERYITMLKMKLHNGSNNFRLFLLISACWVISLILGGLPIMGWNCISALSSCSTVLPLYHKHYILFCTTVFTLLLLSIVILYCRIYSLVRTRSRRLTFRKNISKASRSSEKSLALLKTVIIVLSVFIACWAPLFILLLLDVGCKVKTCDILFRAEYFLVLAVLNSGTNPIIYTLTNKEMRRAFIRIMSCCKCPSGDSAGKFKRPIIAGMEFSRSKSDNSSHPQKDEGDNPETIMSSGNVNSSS
Here is the method: Generation of S1P1-Mediated Inhibition of cAMP Reporter Assay
A mammalian expression plasmid containing S1P1/EDG1 cloned into pcDNA3.1 was purchased from Missouri S&T cDNA Resource Centre. […] S1P1/pcDNA3.1 was transfected into the CRE-bla CHO K1 (Invitrogen) cell line, and stable single cell clones were selected using standard techniques.
S1P1 CRE-Bla CHOK1 Reporter Assay—Characterization of S1P1 Agonists
Cells were seeded into 384-well black wall/clear bottom plates at 10^4 cells/well/19.5 μl assay media (DMEM-phenol free, 0.5% charcoal/dextran stripped serum, 2 mM glutamine, 0.1 mM NEAA, 1 mM Na-Pyruvate, 25 mM Hepes) and incubated for 18 hrs at 37° C. in 5% CO2. Dose response curves (10-point) were generated in 10 mM Hepes, 0.1% Pluronic F127, in the presence of Forskolin. Cells were treated with 0.5 μl compound in the presence of 2 μM Forskolin for 4 hrs at 37° C. The FRET-based β-lactamase fluorescent substrate (LiveBLAzer™-FRET B/G Loading Kit CC4-AM; Invitrogen) was prepared according to manufacturer's directions, and incubated with cells for 2 hrs at room temperature.
Take `CC(C)Oc1ccc(-c2nnc(-c3cccc4c3CCC[C@H]4NS(N)(=O)=O)s2)cc1C#N` [Compound 275, (R)—N-(5-(5-(3-cyano-4-isopropoxyphenyl)-1,3,4-thiadiazol-2-yl)-1,2,3,4-tetrahydronaphthalen-1-yl) sulfamide]: the EC50 was 0.05 to 0.5 nM.
Consider `CC(C)Oc1ccc(-c2nnc(-c3cccc4c3CC[C@H]4NC(=O)CN(C)C)s2)cc1C#N` [Compound 49], for which the EC50 lay in the range of 0.5 to 5 nM.
For `CC(C)Oc1ccc(-c2nnc(-c3cccc4c3CCC[C@@H]4NCc3ccncc3)s2)cc1C#N` [Compound 270], the EC50 is 0.5 to 5 nM.
The same measure for `CC(C)Oc1ccc(-c2nnc(-c3cccc4c3CCC[C@@H]4NS(=O)(=O)C3CC3)s2)cc1C#N` [Compound 283]: 0.05 to 0.5 nM.
In the case of `CC(C)Oc1ccc(-c2nnc(-c3cccc4c3CCC[C@@H]4NS(=O)(=O)CC(=O)O)s2)cc1C#N` [Compound 288, (S)-2-(N-(5-(5-(3-cyano-4-isopropoxyphenyl)-1,3,4-thiadiazol-2-yl)-1,2,3,4-tetrahydronaphthalen-1-yl)sulfamoyl) acetic acid], the EC50 was in the range of 0.05 to 0.5 nM.
For the compound `CC(=O)N[C@@H]1CCc2c(-c3cnc(-c4ccc(OC(C)C)c(C#N)c4)s3)cccc21` [Compound 87], the EC50 is 0.05 to 0.5 nM.
For `CC(C)Oc1ccc(-c2ncc(-c3cccc4c3CC[C@H]4NC(=O)N3CCN(C)CC3)s2)cc1C#N` [Compound 190], the EC50 lay in the range of 0.5 to 5 nM.
In the case of `CC(C)Oc1ccc(-c2nnc(-c3cccc4c3CC[C@H]4O)s2)cc1C#N` [Compound 2, (R)-5-(5-(1-hydroxy-2,3-dihydro-1H-inden-4-yl)-1,3,4-thiadiazol-2-yl)-2-isopropoxybenzonitrile], the EC50 lay within 0.05 to 0.5 nM.
As for `CC(C)Oc1ccc(-c2nnc(-c3cccc4c3CCC[C@@H]4NCc3cnc[nH]3)s2)cc1C#N` [Compound 267], the EC50 is 0.5 to 5 nM.
On to `CC(C)Oc1ccc(-c2nnc(-c3cccc4c3CC[C@H]4NCCO)s2)cc1C#N` [Compound 17, (R)-5-(5-(1-((2-hydroxyethyl)amino)-2,3-dihydro-1H-inden-4-yl)-1,3,4-thiadiazol-2-yl)-2-isopropoxybenzonitrile], for which the EC50 was 0.05 to 0.5 nM.
Turning to `COC(=O)CS(=O)(=O)N[C@H]1CCc2c(-c3nsc(-c4ccc(OC(C)C)c(C#N)c4)n3)cccc21` [Compound 313, (S)-methyl 2-(N-(4-(5-(3-cyano-4-isopropoxyphenyl)-1,2,4-thiadiazol-3-yl)-2,3-dihydro-1H-inden-1-yl)sulfamoyl)acetate], the EC50 lay within 0.05 to 0.5 nM.
The same measure for `COC(=O)N[C@@H]1CCCc2c(-c3nnc(-c4ccc(OC(C)C)c(C#N)c4)s3)cccc21` [Compound 244]: 0.5 to 5 nM.
Turning to `CC(C)Oc1ccc(-c2ncc(-c3cccc4c3CC[C@H]4NCC(=O)N3CCNCC3)s2)cc1C#N` [Compound 107], the EC50 fell in the range of 0.5 to 5 nM.
As for `CNC(=O)CN[C@@H]1CCCc2c(-c3nnc(-c4ccc(OC(C)C)c(C#N)c4)s3)cccc21` [Compound 305], the figure is 0.05 to 0.5 nM; as for `CC(C)Oc1ccc(-c2nnc(-c3cccc4c3CCC4NS(=O)(=O)CCN3CC[C@@H](O)C3)s2)cc1C#N` (stereo in doubt) [Compound 37, N—((S)-4-(5-(3-cyano-4-isopropoxyphenyl)-1,3,4-thiadiazol-2-yl)-2,3-dihydro-1H-inden-1-yl)-2-((R)-3-hydroxypyrrolidin-1-yl)ethanesulfonamide], 0.5 to 5 nM.
As to `CC(C)Oc1ccc(-c2nnc(-c3cccc4c3CCC[C@@H]4NCCO)s2)cc1C#N` [Compound 300, (S)-5-(5-(5-((2-hydroxyethyl)amino)-5,6,7,8-tetrahydronaphthalen-1-yl)-1,3,4-thiadiazol-2-yl)-2-isopropoxybenzonitrile], the EC50 is 0.05 to 0.5 nM.
Consider `CC(C)Oc1ccc(-c2ncc(-c3cccc4c3CC[C@H]4NC(=O)CN)s2)cc1C#N` [Compound 77], for which the EC50 was 0.05 to 0.5 nM.
As for `CC(C)Oc1ccc(-c2nnc(-c3cccc4c3CC[C@H]4NC(=O)N3CCC(O)CC3)s2)cc1C#N` [Compound 62], the figure is 0.5 to 5 nM; as for `CC(C)Oc1ccc(-c2ncc(-c3cccc4c3CC[C@H]4NS(=O)(=O)CCN3CCC(O)CC3)s2)cc1C#N` [Compound 146], 0.5 to 5 nM.
Turning to `CNCC(=O)N[C@@H]1CCCc2c(-c3nnc(-c4ccc(OC(C)C)c(C#N)c4)s3)cccc21` [Compound 251], the EC50 fell in the range of 0.5 to 5 nM.
Regarding `CC(C)Oc1ccc(-c2ncc(-c3cccc4c3CC[C@H]4NC(=O)N3CCC[C@@H](O)C3)s2)cc1C#N` [Compound 198], the EC50 lay in the range of 0.05 to 0.5 nM.
Turning to `CC(C)Oc1ccc(-c2nnc(-c3cccc4c3CCC[C@@H]4NCC(=O)O)s2)cc1C#N` [Compound 302, (S)-2-((5-(5-(3-cyano-4-isopropoxyphenyl)-1,3,4-thiadiazol-2-yl)-1,2,3,4-tetrahydronaphthalen-1-yl)amino)acetic acid], the EC50 fell in the range of 0.05 to 0.5 nM.
As to `CNC(=O)CCS(=O)(=O)N[C@H]1CCCc2c(-c3nnc(-c4ccc(OC(C)C)c(C#N)c4)s3)cccc21` [Compound 298, (S)-3-(N-(5-(5-(3-cyano-4-isopropoxyphenyl)-1,3,4-thiadiazol-2-yl)-1,2,3,4-tetrahydronaphthalen-1-yl)sulfamoyl)-N-methylpropanamide], the EC50 is 0.05 to 0.5 nM.
As for `CC(C)Oc1ccc(-c2ncc(-c3cccc4c3CC[C@@H]4NS(=O)(=O)CCN3CC[C@@H](O)C3)s2)cc1C#N` [Compound 131], the EC50 is 0.5 to 5 nM.
As for `CC(C)Oc1ccc(-c2nnc(-c3cccc4c3CCC4NS(=O)(=O)CCN3CC[C@@H](O)C3)s2)cc1C#N` (stereo in doubt) [Compound 38, N—((R)-4-(5-(3-cyano-4-isopropoxyphenyl)-1,3,4-thiadiazol-2-yl)-2,3-dihydro-1H-inden-1-yl)-2-((R)-3-hydroxypyrrolidin-1-yl)ethanesulfonamide], the figure is 0.5 to 5 nM; as for `CC(C)Oc1ccc(-c2ncc(-c3cccc4c3CC[C@H]4NCC(=O)N3CC[C@H](O)C3)s2)cc1C#N` [Compound 102, 5-(5-((R)-1-((2-((S)-3-hydroxypyrrolidin-1-yl)-2-oxoethyl)amino)-2,3-dihydro-1H-inden-4-yl)thiazol-2-yl)-2-isopropoxybenzonitrile hydrochloride], 0.05 to 0.5 nM.
On to `CC(C)Oc1ccc(-c2ncc(-c3cccc4c3CC[C@@H]4NC(=O)N3CCC[C@@H](O)C3)s2)cc1C#N` [Compound 196], for which the EC50 was in the range of 0.5 to 5 nM.
As for `CC(C)Oc1ccc(-c2ncc(-c3cccc4c3CCC[C@H]4N)s2)cc1C#N` [Compound 230, (R)-5-(5-(5-amino-5,6,7,8-tetrahydronaphthalen-1-yl)thiazol-2-yl)-2-isopropoxybenzonitrile hydrochloride], the figure is 0.5 to 5 nM; as for `CC(C)Oc1ccc(-c2nnc(-c3cccc4c3CCC[C@@H]4NCc3ncc[nH]3)s2)cc1C#N` [Compound 266], 0.05 to 0.5 nM.
As to `CC(C)Oc1ccc(-c2nc(-c3cccc4c3CC[C@@H]4NCCO)ns2)cc1C#N` [Compound 311, (S)-5-(3-(1-(2-hydroxyethyl)amino)-2,3-dihydro-1H-inden-4-yl)-1,2,4-thiadiazol-5-yl)-2-isopropoxybenzonitrile hydrochloride], the EC50 was in the range of 0.5 to 5 nM.
For the compound `CC(C)Oc1ccc(-c2nnc(-c3cccc4c3CC[C@H]4NC(=O)N3CCC[C@H](O)C3)s2)cc1C#N` [Compound 61], the EC50 fell in the range of 0.05 to 0.5 nM.
Take `CC(C)Oc1ccc(-c2ncc(-c3cccc4c3CC[C@H]4O)s2)cc1C#N` [Compound 69, (R)-5-(5-(1-hydroxy-2,3-dihydro-1H-inden-4-yl)thiazol-2-yl)-2-isopropoxy benzonitrile]: the EC50 is 0.05 to 0.5 nM.
On to `COC(=O)N[C@H]1CCCc2c(-c3nnc(-c4ccc(OC(C)C)c(C#N)c4)s3)cccc21` [Compound 240], for which the EC50 was in the range of 0.05 to 0.5 nM.
On to `CC(C)Oc1ccc(-c2nnc(-c3cccc4c3CCC[C@H]4NCc3c[nH]cn3)s2)cc1C#N` [Compound 261], for which the EC50 is over 5 nM.
With `CC(C)Oc1ccc(-c2nnc(-c3cccc4c3CCC[C@@H]4NS(C)(=O)=O)s2)cc1C#N` [Compound 279, (S)—N-(5-(5-(3 cyano-4-isopropoxyphenyl)-1,3,4-thiadiazol-2-yl)-1,2,3,4-tetrahydronaphthalen-1-yl)methanesulfonamide], the EC50 lay in the range of 0.05 to 0.5 nM.
Regarding `CC(C)Oc1ccc(-c2nnc(-c3cccc4c3CC[C@H]4NS(N)(=O)=O)s2)cc1C#N` [Compound 48, (R)—N-(4-(5-(3-cyano-4-isopropoxyphenyl)-1,3,4-thiadiazol-2-yl)-2,3-dihydro-1H-inden-1-yl) sulfamide], the EC50 is under 0.05 nM.
The same measure for `CC(C)Oc1ccc(-c2ncc(-c3cccc4c3CC[C@H]4NC(=O)CN(C)C)s2)cc1C#N` [Compound 81]: 0.5 to 5 nM; for `CC(C)Oc1ccc(-c2nnc(-c3cccc4c3CCC[C@H]4NCC(=O)N3CCCC3)s2)cc1C#N` [Compound 303, (R)-2-isopropoxy-5-(5-(5-((2-oxo-2-(pyrrolidin-1-yl)ethyl)amino)-5,6,7,8-tetrahydronaphthalen-1-yl)-1,3,4-thiadiazol-2-yl)benzonitrile]: 0.05 to 0.5 nM.
As for `CC(C)Oc1ccc(-c2nnc(-c3cccc4c3CCC[C@H]4NS(C)(=O)=O)s2)cc1C#N` [Compound 278, (R)—N-(5-(5-(3-cyano-4-isopropoxyphenyl)-1,3,4-thiadiazol-2-yl)-1,2,3,4-tetrahydronaphthalen-1-yl)methanesulfonamide], the EC50 is 0.05 to 0.5 nM.
With `CC(C)Oc1ccc(-c2ncc(-c3cccc4c3CC[C@H]4NC(=O)N3CCC(CO)CC3)s2)cc1C#N` [Compound 195], the EC50 lay in the range of 0.5 to 5 nM.
